target: T1, SAE (Homo sapiens, UniProt Q9UBT2); assay: SUMO IF: in vitro inhibitory activity assay against SAE in HCT116 cells (SUMO-2/3 immunofluorescence); format: cell-based; conditions: class symbols, 6 h at 37° C.
T1 construct: endogenous in cells; host or cells: HCT116
T1 sequence (Q9UBT2 1-640): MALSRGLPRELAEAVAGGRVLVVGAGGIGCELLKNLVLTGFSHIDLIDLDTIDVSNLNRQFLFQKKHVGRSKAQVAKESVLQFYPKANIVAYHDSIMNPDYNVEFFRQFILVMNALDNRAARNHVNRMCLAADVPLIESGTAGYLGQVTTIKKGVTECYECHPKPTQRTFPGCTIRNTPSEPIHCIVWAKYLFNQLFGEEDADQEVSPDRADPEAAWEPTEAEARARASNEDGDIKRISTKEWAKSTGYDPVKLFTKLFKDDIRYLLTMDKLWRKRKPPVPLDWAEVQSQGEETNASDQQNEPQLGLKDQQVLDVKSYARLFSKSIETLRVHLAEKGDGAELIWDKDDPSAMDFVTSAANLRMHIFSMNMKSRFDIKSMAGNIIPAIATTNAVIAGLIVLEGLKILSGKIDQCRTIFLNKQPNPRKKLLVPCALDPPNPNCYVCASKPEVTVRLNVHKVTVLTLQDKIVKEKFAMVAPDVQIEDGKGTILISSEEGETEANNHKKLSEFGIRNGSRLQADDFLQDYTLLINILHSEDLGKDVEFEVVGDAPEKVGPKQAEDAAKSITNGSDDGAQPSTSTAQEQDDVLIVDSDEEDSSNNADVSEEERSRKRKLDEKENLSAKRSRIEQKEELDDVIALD
T1 sequence (Q9UBE0 1-346): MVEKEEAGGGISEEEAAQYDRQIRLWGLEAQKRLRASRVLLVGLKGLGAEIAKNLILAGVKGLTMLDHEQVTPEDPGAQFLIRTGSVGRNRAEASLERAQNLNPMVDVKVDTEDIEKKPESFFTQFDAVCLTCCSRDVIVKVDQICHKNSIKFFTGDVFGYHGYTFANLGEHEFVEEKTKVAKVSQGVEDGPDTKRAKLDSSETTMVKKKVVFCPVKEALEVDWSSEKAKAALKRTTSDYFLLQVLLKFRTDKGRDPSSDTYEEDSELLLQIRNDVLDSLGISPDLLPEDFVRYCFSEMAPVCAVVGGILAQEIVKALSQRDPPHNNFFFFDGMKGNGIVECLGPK
Procedure, shortened: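 SUMO-2/3 immunofluorescence (18H8 primary 1:400, FITC secondary 1:300) was read after 6 h compound exposure of HCT116 cells at 37 °C. Inhibition rate and IC50 derive from signal relative to DMSO-treated wells.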

| SMILES | IC50 [nM] |
| --- | --- |
| Cc1sc(C(=O)c2cncnc2N[C@H]2C[C@H](O)[C@@H](CCS(N)(=O)=O)[C@@H]2F)cc1C1NCCc2ccc(Cl)cc21 (stereo partly drawn) [Compound 990] | > 200 |
| CN1Cc2sc(C(=O)c3cncnc3N[C@H]3C[C@H](O)[C@@H](COS(N)(=O)=O)[C@@H]3F)cc2[C@]2(C1)OCCc1ccc(F)cc12 [Compound 722] | ≤ 50 |
| NS(=O)(=O)OC[C@H]1[C@H](F)[C@@H](Nc2ncncc2C(=O)c2cc3c(s2)CSCC32NCCc3ccc(Cl)nc32)C[C@@H]1O (stereo partly drawn) [Compound 609] | 50 to 200 |
| [2H]C1([2H])CNC2(CCCc3sc(C(=O)c4cncnc4N[C@H]4C[C@H](O)[C@@H](COS(N)(=O)=O)[C@@H]4F)cc32)c2cc(Cl)ccc21 (stereo partly drawn) [Compound 663] | ≤ 50 |
| CN1Cc2sc(C(=O)c3cncnc3N[C@H]3C[C@H](O)[C@@H](COS(N)(=O)=O)[C@@H]3F)cc2[C@@]2(C1)OCCc1ccc(Cl)cc12 [Compound 724] | > 200 |
| NS(=O)(=O)OC[C@H]1[C@H](F)[C@@H](Nc2ncncc2C(=O)c2cc3c(s2)C=CC32OCCc3ccc(Cl)cc32)C[C@@H]1O (stereo partly drawn) [Compound 759] | ≤ 50 |
| NS(=O)(=O)OC[C@H]1[C@H](F)[C@@H](Nc2ncncc2C(=O)c2cc3c(s2)CCC[C@]32OCCc3ccc(F)cc32)C[C@@H]1O [Compound 713] | ≤ 50 |
| NS(=O)(=O)CC[C@H]1[C@H](F)[C@@H](Nc2ncncc2C(=O)c2cc3c(s2)CCCC32NCCc3ccc(Cl)cc32)C[C@@H]1O (stereo partly drawn) [Compound 636] | > 200 |
| CC1Cc2ccc(Cl)cc2[C@@]2(C=Cc3sc(C(=O)c4cncnc4N[C@H]4C[C@H](O)[C@@H](COS(N)(=O)=O)[C@@H]4F)cc32)N1 (stereo partly drawn) [Compound 1058] | 50 to 200 |
| NS(=O)(=O)OC[C@H]1[C@H](F)[C@@H](Nc2ncncc2C(=O)c2cc3c(s2)CCC[C@]32NCCc3cc(F)c(F)cc32)C[C@@H]1O [Compound 670] | ≤ 50 |
| CC1CN[C@@]2(C=Cc3sc(C(=O)c4cncnc4N[C@H]4C[C@H](O)[C@@H](COS(N)(=O)=O)[C@@H]4F)cc32)c2cc(Cl)ccc21 (stereo partly drawn) [Compound 1054] | > 200 |
| NS(=O)(=O)OC[C@H]1[C@H](F)[C@@H](Nc2ncncc2C(=O)c2cc3c(s2)CCCC32NCCc3ccncc32)C[C@@H]1O (stereo partly drawn) [Compound 118] | 50 to 200 |
| NS(=O)(=O)OC[C@H]1[C@H](F)[C@@H](Nc2ncncc2C(=O)c2cc3c(s2)CC[C@]32NCCc3ccc(C(F)(F)F)cc32)C[C@@H]1O [Compound 690] | 50 to 200 |
| NS(=O)(=O)OC[C@H]1[C@H](F)[C@@H](Nc2ncncc2C(=O)c2nc3c(s2)COC[C@]32NCCc3ccc(Cl)cc32)C[C@@H]1O [Compound 590] | > 200 |
| N#Cc1ccc2c(c1)[C@]1(CCCc3sc(C(=O)c4cncnc4N[C@H]4C[C@H](O)[C@@H](COS(N)(=O)=O)[C@@H]4F)cc31)OCC2 [Compound 715] | > 200 |
| Cc1cc2c(cc1Cl)[C@@]1(CCc3sc(C(=O)c4cncnc4N[C@H]4C[C@H](O)[C@@H](COS(N)(=O)=O)[C@@H]4F)cc31)NCC2 [Compound 694] | ≤ 50 |
| CCN1Cc2sc(C(=O)c3cncnc3N[C@H]3C[C@H](O)[C@@H](COS(N)(=O)=O)[C@@H]3F)cc2[C@@]2(C1)OCCc1ccc(F)cc12 [Compound 727] | > 200 |
| CC1(C)Cc2ccc(Cl)cc2[C@@]2(CCCc3sc(C(=O)c4cncnc4N[C@H]4C[C@H](O)[C@@H](COS(N)(=O)=O)[C@@H]4F)cc32)N1 [Compound 1031] | 50 to 200 |

| SMILES | IC50 [nM] |
| --- | --- |
| NS(=O)(=O)OC[C@H]1[C@H](F)[C@@H](Nc2ncncc2C(=O)c2cc3c(s2)OCC32NCCc3ccc(Cl)cc32)C[C@@H]1O (stereo partly drawn) [Compound 145] | 50 to 200 |
| NS(=O)(=O)OC[C@H]1[C@H](F)[C@@H](Nc2ncncc2C(=O)c2cc3c(s2)OC[C@]32NCCc3ccc(Cl)cc32)C[C@@H]1O [Compound 147] | 50 to 200 |
| N#Cc1ccc2c(c1)C1(CCc3sc(C(=O)c4cncnc4N[C@H]4C[C@H](O)[C@@H](COS(N)(=O)=O)[C@@H]4F)cc31)OCC2 (stereo partly drawn) [Compound 750] | 50 to 200 |
| NS(=O)(=O)OC[C@H]1[C@H](F)[C@@H](Nc2ncncc2C(=O)c2cc3c(s2)CCC[C@]32NCC3(CC3)c3ccc(Cl)cc32)C[C@@H]1O [Compound 617] | ≤ 50 |
| NS(=O)(=O)OC[C@H]1[C@H](F)[C@@H](Nc2ncncc2C(=O)c2cc3c(s2)CCC32NCCc3cc(Cl)c(F)cc32)C[C@@H]1O (stereo partly drawn) [Compound 159] | 50 to 200 |
| Cc1sc(C(=O)c2cncnc2N[C@H]2C[C@H](O)[C@@H](COS(N)(=O)=O)[C@@H]2F)cc1[C@@H]1NCCc2ccc(C#N)cc21 [Compound 239] | 50 to 200 |
| NS(=O)(=O)OC[C@H]1[C@H](F)[C@@H](Nc2ncncc2C(=O)c2cc3c(s2)COCC32NCCc3ccc(Cl)c(F)c32)C[C@@H]1O (stereo partly drawn) [Compound 567] | 50 to 200 |
| CC(C)N1Cc2sc(C(=O)c3cncnc3N[C@H]3C[C@H](O)[C@@H](COS(N)(=O)=O)[C@@H]3F)cc2[C@@]2(C1)OCCc1ccc(Cl)cc12 [Compound 736] | > 200 |
| NS(=O)(=O)OC[C@H]1[C@H](F)[C@@H](Nc2ncncc2C(=O)c2cc3c(s2)CC[C@]32NCCc3cc(F)c(Cl)cc32)C[C@@H]1O [Compound 692] | ≤ 50 |
| NS(=O)(=O)OC[C@H]1[C@H](F)[C@@H](Nc2ncncc2C(=O)c2cc3c(s2)CCC32OCCc3ccc(F)cc32)C[C@@H]1O (stereo partly drawn) [Compound 747] | 50 to 200 |
| NS(=O)(=O)OC[C@H]1[C@H](F)[C@@H](Nc2ncncc2C(=O)c2cc3c(s2)CNC[C@]32NCCc3ccc(Cl)cc32)C[C@@H]1O [Compound 584] | 50 to 200 |
| CN1Cc2sc(C(=O)c3cncnc3N[C@H]3C[C@H](O)[C@@H](COS(N)(=O)=O)[C@@H]3F)cc2C2(C1)OCCc1ccccc12 (stereo partly drawn) [Compound 717] | 50 to 200 |
| NS(=O)(=O)OC[C@H]1[C@H](F)[C@@H](Nc2ncncc2C(=O)c2cc3c(s2)CN(C2CC2)CC32OCCc3ccc(F)cc32)C[C@@H]1O (stereo partly drawn) [Compound 738] | 50 to 200 |
| NS(=O)(=O)OC[C@H]1[C@H](F)[C@@H](Nc2ncncc2C(=O)c2cc3c(s2)C=C[C@]32NCCc3ccc(F)cc32)C[C@@H]1O [Compound 346] | ≤ 50 |
| NS(=O)(=O)OC[C@H]1[C@H](F)[C@@H](Nc2ncncc2C(=O)c2nc3c(s2)COCC32NCCc3ccc(Cl)cc32)C[C@@H]1O (stereo partly drawn) [Compound 588] | > 200 |
| NS(=O)(=O)OC[C@H]1[C@H](F)[C@@H](Nc2ncncc2C(=O)c2cc3c(s2)COCC32NCCc3cc(Cl)c(Cl)cc32)C[C@@H]1O (stereo partly drawn) [Compound 561] | 50 to 200 |
| NS(=O)(=O)OC[C@H]1[C@H](F)[C@@H](Nc2ncncc2C(=O)c2cc3c(s2)C=C[C@@]32OCCc3ccccc32)C[C@@H]1O [Compound 754] | > 200 |
| NS(=O)(=O)OC[C@H]1[C@H](F)[C@@H](Nc2ncncc2C(=O)c2cc3c(s2)COC[C@]32NCCc3cc(F)c(Cl)cc32)C[C@@H]1O [Compound 572] | 50 to 200 |

same assay, conditions: numeric values, 6 h at 37° C.

| SMILES | IC50 [nM] |
| --- | --- |
| [2H]C1([2H])CN[C@]2(CCCc3sc(C(=O)c4cncnc4N[C@H]4C[C@H](O)[C@@H](COS(N)(=O)=O)[C@@H]4F)cc32)c2cc(Cl)ccc21 [Compound 665] | 20.6 |
| NS(=O)(=O)OC[C@H]1[C@H](F)[C@@H](Nc2ncncc2C(=O)c2cc3c(s2)COC[C@]32NCCc3ccc(Cl)cc32)C[C@@H]1O [Compound 105] | 79.3 |
| NS(=O)(=O)OC[C@H]1[C@H](F)[C@@H](Nc2ncncc2C(=O)c2cc3c(s2)CC[C@@]32NCCc3ccccc32)C[C@@H]1O [Compound 128] | > 1000 |

— patent US20260297109A1, “COMPOUNDS AS SUMO ACTIVATING ENZYME INHIBITORS” (WIGEN BIOMEDICINE TECHNOLOGY (SHANGHAI) CO., LTD., priority 2022, published 2026)
